Data from patent US5817689A, “Indole derivatives having a 2-phenyl-ethanolamino-substituted lower alkyl group at the 2-or 3-position thereof” (priority 1994, dated 1998).
Where a name gives a salt, the structure may show the parent alone. Read-outs that look alike come from different tables or passages of the source.

How the values were obtained:
Central nervous system = conditions: literature compound; cited from earlier work
bacteria = conditions: literature compound; cited from earlier work
[1] = molecular target: T1, human β3 -adrenergic receptor (Homo sapiens, UniProt P13945); test: Human β3-adrenergic receptor-stimulating activity (cAMP accumulation in CHO/pKREX10-36 cells); format: cell-based; conditions: for Emax: read-out: I.A. value β3 -receptor; for stimulating activity of human β3 -adrenergic receptor (in words): conclusion from Table 5; for Ratio of EC50 β2 /β3: ratio of EC50 β2-receptor to EC50 β3-receptor
T1 construct: expressed in transfected cells; host or cells: CHO-K1 (ATCC CCL 61), clone CHO/pKREX10-36
T1 sequence (P13945 whole entry): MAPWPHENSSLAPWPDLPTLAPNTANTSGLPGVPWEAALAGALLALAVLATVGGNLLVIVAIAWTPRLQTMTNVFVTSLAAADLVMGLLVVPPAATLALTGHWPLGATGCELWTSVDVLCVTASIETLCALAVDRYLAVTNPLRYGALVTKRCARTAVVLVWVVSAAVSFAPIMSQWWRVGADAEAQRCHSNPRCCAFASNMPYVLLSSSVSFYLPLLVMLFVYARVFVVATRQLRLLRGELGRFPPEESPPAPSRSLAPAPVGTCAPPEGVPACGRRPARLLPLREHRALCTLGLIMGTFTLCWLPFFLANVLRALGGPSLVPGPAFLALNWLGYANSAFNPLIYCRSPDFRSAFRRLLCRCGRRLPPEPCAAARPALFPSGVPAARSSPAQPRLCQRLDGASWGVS
Experimental: Establishment of the cell line highly expressing human β3 -adrenergic receptor
Separately, another expression vector for animal cells, pSV2-neo [Southern and Berg, J. Mol. Appl. Genet. […] These DNAs were ligated with DNA Ligation Kit (Takara Shuzo Co., Ltd.) and were introduced into E. coli HB101 in a conventional manner to give the transformants. Plasmid DNAs were prepared from the transformants and digested with a restriction endonuclease PstI. A clone which produced about 3.8 kbp, 2.2 kbp, 1.4 kbp, and 0.9 kbp fragments was selected to give a plasmid named pKCN0.
The reaction mixture was used for transformation of E. coli HB101 and plasmid DNAs were prepared from the selected transformants. The plasmid DNAs were digested with restriction endonucleases DraI and HindIII, and a clone which produced about 430 bp fragment was selected to give a plasmid named pKCN1 for expression vector.
10% Dimethyl sulfoxide was added to the reaction mixture at the PCR reaction.
After the reaction mixture was digested with restriction endonucleases Sse8387I and StuI, about 1.3 kbp fragment was isolated by electrophoresis. This fragment was ligated with expression vector pKCN1 which was digested with restriction endonucleases Sse8387I and EcoRV, and the resultant was introduced into E. coli HB101 in a conventional manner. Plasmid DNA was prepared from the selected transformant and the nucleotide sequence of the about 1.3 kbp fragment obtained by digestion of the plasmid DNA with restriction endonucleases Sse8387I and XhoI was determined. […] This plasmid for expressing human β3 -adrenergic receptor was named as pKREX10.
The reaction mixture was filtered with glass filter GF/C (Whatman) presoaked with 0.3% polyethyleneimine and washed by using BIO-DOT apparatus (Bio-Rad Laboratories), and the radioactivity on the filter was counted by γ-ray counter. […] Establishment of the cell line highly expressing human β2 -adrenergic receptor
(§1) Experiment 1 Human β-adrenergic receptor-stimulating activity:
(§2) The cells were peeled off by incubation with phosphate-buffered saline containing 0.5 mM EDTA at 37° C. for 10 minutes after the medium was removed. The CHO/pKREX10-36 cells were collected by centrifugation, and suspended in Hanks' balanced salts (ICN Biomedicals) containing 1 mM L-ascorbic acid and 1 mM 3-isobutyl-1-methylxanthine at the concentration of about 2×10^6cells/ml. This suspension (100μl) and a test compound were mixed in the same balanced salt (500 μl) and incubated at 37° C. for 30 minutes, followed by boiling for 5 minutes to terminate the reaction. After centrifugation of the reaction mixture, the amount of cAMP in the supernatant was measured by using cAMP EIA System (Amersham).

[2] = molecular target: T2, human β2 -adrenergic receptor (Homo sapiens, UniProt P07550); test: Human β2-adrenergic receptor-stimulating activity (cAMP accumulation in CHO/pKREX21-8 cells); format: cell-based; conditions: for Emax: read-out: I.A. value β2 -receptor; for I.A. value β2 -receptor: intrinsic activity: maximal cAMP response relative to 10^-5 M (-)-isoproterenol = 100%
T2 construct: expressed in transfected cells; host or cells: CHO-K1, clone CHO/pKREX21-8
T2 sequence (P07550 whole entry): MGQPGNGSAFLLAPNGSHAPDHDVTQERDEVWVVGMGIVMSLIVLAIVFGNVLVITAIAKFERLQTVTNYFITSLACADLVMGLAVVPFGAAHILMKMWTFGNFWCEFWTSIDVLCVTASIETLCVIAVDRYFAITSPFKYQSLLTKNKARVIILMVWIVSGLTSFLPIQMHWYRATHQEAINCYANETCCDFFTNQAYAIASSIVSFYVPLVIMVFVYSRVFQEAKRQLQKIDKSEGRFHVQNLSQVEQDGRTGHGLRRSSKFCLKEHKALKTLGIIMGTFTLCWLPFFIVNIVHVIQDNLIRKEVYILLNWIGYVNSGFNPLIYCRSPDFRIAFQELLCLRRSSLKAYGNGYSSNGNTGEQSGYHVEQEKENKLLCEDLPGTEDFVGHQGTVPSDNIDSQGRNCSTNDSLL
Description: cDNA was synthesized with Poly(A)^+ RNA derived from human brain (Clontech: trade number; CL6516-1) by using SuperScript Systems (Life Technologies).
After the reaction mixture was digested with restriction endonucleases Sse8387I and HindIII, about 1.4 kbp fragment was isolated by electrophoresis. This fragment was ligated with expression vector pKCN1 digested with restriction endonucleases Sse8387I and HindIII, and was introduced into E. coli HB101 in a conventional manner. Plasmid DNA was prepared from the selected transformant, and the nucleotide sequence of the about 1.4 kbp fragment obtained by digestion of this plasmid DNA with restriction endonucleases Sse8387I and HindIII was determined. […] This plasmid was named as pKREX21 for highly expressing human β2 -adrenergic receptor, and was introduced into CHO-K1 in the same manner as the method of establishment of the cell line highly expressing human β3 -adrenergic receptor.
as §1, §2
Similarly, the amount of cAMP was measured by using CHO/pKREX21-8 for highly expressing human β2 -adrenergic receptor instead of the CHO/pKREX10-36 for highly expressing human β3 -adrenergic receptor.

[3] = tested on: glucose level in the blood; test: Blood glucose reducing activity on fasted mouse; format: in vivo, ddY male mouse; conditions: 3 h, read-out: Blood glucose reducing activity (ED25)
Experimental: Experiment 2 Blood glucose reducing activity on fasted mouse:
A test compound suspended in 0.5% tragacanth solution was orally administered to a ddY male mouse (weight: 20-30 g) under being fasted, and the blood was collected before and at three hours after the administration of the test compound. The glucose level in the blood was determined by the method of Kunst A., et al. (Hexokinase/G6PDH method) [Bergmeyer, H. U. (eds.), […], vol. VI, 3rd edition, Verlag Chemie GmbH, Weinheim·Deerfield Beach, Florida·Basel, 163-172 (1984)]. The blood glucose reducing activity of the test compound was expressed by ED25 value which is a concentration of the test compound required to reduce the glucose level in blood before the administration of the test compound by 25%. Gliclazide was used as a reference compound which is a commercially available drug for treatment of diabetes mellitus.

[4] = tested on: retroperitoneal (white) and interscapular (brown) adipose tissue; test: Anti-obesity activity on diabetic obese mouse; format: in vivo, diabetic obese mouse (KK-Ay/Ta, Jcl. female); conditions: 3 mg/kg/day oral for three weeks, significantly different from control, p < 0.01
Experimental: Experiment 3 Anti-obesity activity on diabetic obese mouse:
A test compound suspended in 0.5% tragacanth solution was orally administrated to a diabetic obese mouse (KK-Ay/Ta, Jcl. female; 50-60 g, Clea Japan Inc.) at a dose of 3 mg/kg/day for three weeks, and then, the retroperitoneal adipose tissue and the interscapulal adipose tissue were taken, and the weights thereof were measured as white adipose tissue and brown adipose tissue, respectively.

[5] = 50% of cAMP accumulation, CHO/pKREX10-36, 37° C., 30 minutes, read-out: EC50 value β3 -receptor
[6] = 25% reduction of blood glucose, fasted ddY male mice, oral, three hours after administration

Structure (SMILES)	EC50 [1] [nM]	Emax [1] [%]	EC50 [2] [nM]	Emax [2] [%]	EC50 [1, 5] [nM]	ED25 ([3]; po) [mg/kg]	also measured
CC(Cc1c[nH]c2ccccc12)NCC(O)c1ccc(O)c(O)c1 (centres unmarked)	–	–	–	–	–	–	Pharmacological Activity (central nervous system) (Central nervous system): Central nervous system inhibitory
COc1ccc(C(O)CNCCc2c[nH]c3ccccc23)cc1Br (centres unmarked)	–	–	–	–	–	–	Pharmacological Activity (antibacterial) (bacteria): Antibacterial activity
COc1cccc2c(CC(C)NC[C@H](O)c3cccc(Cl)c3)c[nH]c12 (single isomer, unassigned) [Example 1-A-b, 2-[(2S or 2R)-3-(7-methoxyindol-3-yl)-2-propylamino]-(1R)-1-(3-chlorophenyl)ethanol]	0.36	89	3.6	35	–	–	–
OC(CNCCc1c[nH]c2ccc(Cl)cc12)c1ccccc1 (centres unmarked) [Compound A, reference compound]	–	92	–	16	910	–	stimulating activity of human β3 -adrenergic receptor (in words) [1]: quite weak human β3 -adrenergic receptor-stimulating activity; Ratio of EC50 β2 /β3 [1]: 0.5; EC50 ([2]; 50% of cAMP accumulation, CHO/pKREX21-8, 37° C., 30 minutes, read-out: EC50 value β2 -receptor): 410 nM
OC(CNCCc1c[nH]c2ccccc12)c1ccccc1 (centres unmarked) [Compound B, reference compound]	–	100	–	–	180	–	stimulating activity of human β3 -adrenergic receptor (in words) [1]: quite weak human β3 -adrenergic receptor-stimulating activity; I.A. value β2 -receptor [2]: 8%
O=[N+]([O-])c1cccc(C(O)CNCCc2c[nH]c3ccccc23)c1 (centres unmarked) [Compound C, reference compound]	–	105	–	–	540	–	stimulating activity of human β3 -adrenergic receptor (in words) [1]: quite weak human β3 -adrenergic receptor-stimulating activity; I.A. value β2 -receptor [2]: 5%
COc1cccc2c(CC(C)NCC(O)c3cccc(Cl)c3)c[nH]c12 (centres unmarked) [Example 1, 2-[3-(7-methoxyindol-3-yl)-2-propylamino]-1-(3-chlorophenyl)ethanol]	–	113	25	33	1.7	0.05	Weight of brown adipose tissue ([4]; control 0.460 ± 0.03): 0.289 ± 0.04 g; Weight of white adipose tissue ([4]; control 4.92 ± 0.28): 2.35 ± 0.12 g
CCOc1cccc2c(CC(C)NCC(O)c3cccc(Cl)c3)c[nH]c12 (centres unmarked) [Example 2, 2-[3-(7-ethoxyindol-3-yl)-2-propylamino]-1-(3-chlorophenyl)ethanol]	2	117	55	31	–	0.03	stimulating activity of human β3 -adrenergic receptor (in words) [1]: potent stimulating activity of human β3 -adrenergic receptor
CCOc1cccc2c(CC(C)NC[C@H](O)c3cccc(Cl)c3)c[nH]c12 (stereo partly drawn) [Example 2-A, 2-[3-(7-ethoxyindol-3-yl)-2-propylamino]-(1R)-1-(3-chlorophenyl)ethanol]	–	96	15	23	0.96	–	–
COc1ccc2c(CC(C)NCC(O)c3cccc(Cl)c3)c[nH]c2c1 (centres unmarked) [Example 3]	–	102	170	22	22	3.3	–
CC(Cc1c[nH]c2c(OCc3ccccc3)cccc12)NCC(O)c1cccc(Cl)c1 (centres unmarked) [Example 4]	16	116	43	36	–	–	Ratio of EC50 β2 /β3 [1]: 2.7
Cc1ccc2c(CC(C)NCC(O)c3cccc(Cl)c3)c[nH]c2c1 (centres unmarked) [Example 5]	–	95	33	41	12	4.5	–
Cc1cccc2c(CC(C)NCC(O)c3cccc(Cl)c3)c[nH]c12 (centres unmarked) [Example 6]	35	91	88	19	–	4.5	Ratio of EC50 β2 /β3 [1]: 2.5
COC(=O)COc1ccc2c(CC(C)NCC(O)c3cccc(Cl)c3)c[nH]c2c1 (centres unmarked) [Example 7]	25	76	33	15	–	1.5	Ratio of EC50 β2 /β3 [1]: 1.3
COC(=O)c1ccc2c(CC(C)NCC(O)c3cccc(Cl)c3)c[nH]c2c1 (centres unmarked) [Example 8]	31	92	–	–	–	1.4	I.A. value β2 -receptor [2]: 5%
Cc1cccc2[nH]cc(CC(C)NCC(O)c3cccc(Cl)c3)c12 (centres unmarked) [Example 10]	–	–	–	–	–	–	ED25 [3, 6]: 0.1 mg/kg
COc1ccc2c(CC(C)NCC(O)c3cccc(Cl)c3)c[nH]c2c1OC (centres unmarked) [Example 12]	4	98	31	13	–	–	Ratio of EC50 β2 /β3 [1]: 7.8
CC(Cc1c[nH]c2cc(OCC(=O)O)ccc12)NCC(O)c1cccc(Cl)c1 (centres unmarked) [Example 13, 2-[3-(6-carboxymethoxyindol-3-yl)-2-propylamino]-1-(3-chlorophenyl)ethanolsodium salt]	31	101	–	–	–	–	I.A. value β2 -receptor [2]: 6%
COC(=O)COc1cccc2c(CC(C)NC[C@H](O)c3cccc(Cl)c3)c[nH]c12 (stereo partly drawn) [Example 14, 2-[3-(7-methoxycarbonylmethoxyindol-3-yl)-2-propylamino]-(1R)-1-(3-chlorophenyl)ethanol]	0.43	95	6	29	–	–	stimulating activity of human β3 -adrenergic receptor (in words) [1]: potent stimulating activity of human β3 -adrenergic receptor; Ratio of EC50 β2 /β3 [1]: 14.0; adrenoceptor selectivity for human β3 -adrenergic receptor (in words) ([1]; β3 versus β2, conclusion from Table 5): excellent adrenoceptor selectivity for human β3 -adrenergic receptor
Cc1ccc(S(=O)(=O)NC(=O)NN2CC3CCCC3C2)cc1 (centres unmarked) [Gliclazide, reference compound]	–	–	–	–	–	–	ED25 [3, 6]: 0.87 mg/kg
CC(C)NC[C@H](O)c1ccc(O)c(O)c1 [IP, (-)Isoproterenol, reference compound]	–	–	–	–	–	–	I.A. value β3 -receptor ([1]; intrinsic activity: maximal cAMP response relative to 10^-5 M (-)-isoproterenol = 100%): 100%
